# From patent publication US11739074B2, “Ras inhibitors” (Revolution Medicines, Inc., priority 2019, dated 2023)
# Where two headings read alike, the source gives them in different places.
# How the values were obtained:
# AsPC-1 (K-Ras G12D) [1] = assay: CellTiter-Glo cell viability assay, AsPC-1; type: cell-based; details: Homo sapiens, ASPC1, 120 h
# Experimental: Determination of Cell Viability in RAS Mutant Cancer Cell Lines
# Protocol: CellTiter-Glo® Cell Viability Assay
# Note—The following protocol describes a procedure for monitoring cell viability of K-Ras mutant cancer cell lines in response to a compound of the invention. Other RAS isoforms may be employed, though the number of cells to be seeded will vary based on cell line used.
# Test compounds (132.5 nL) were directly dispensed into the assay plates containing cells. […] On day 5, assay plates and their contents were equilibrated to room temperature for approximately 30 minutes. […] Luminescence was measured using the PerkinElmer Enspire. Data were normalized by the following: (Sample signal/Avg. DMSO)*100. The data were fit using a four-parameter logistic fit.
# AsPC-1 (K-Ras G12D) [2] = assay: Potency assay: pERK in AsPC-1 cells; type: cell-based; details: Homo sapiens, ASPC1; AsPC-1 cells, K-Ras G12D; read-out: pERK EC50 (AsPC-1 KRAS G12D)
# [3] = AsPC-1, K-Ras G12D, 5-day treatment, read-out: AsPC-1 Cell Viability IC50
SMILES,IC50 (AsPC-1 (K-Ras G12D) [1]; [3]),EC50 (AsPC-1 (K-Ras G12D) [2]),"IC50 (AsPC-1 (K-Ras G12D) [1]; read-out: AsPC-1 Cell Viability IC50, AsPC-1, K-Ras G12D, 5-day treatment)"
"CCn1c(-c2cccnc2[C@H](C)OC)c2c3cc(ccc31)-c1cc(O)cc(c1)C[C@H](NC(=O)[C@H](C(C)C)N(C)C(=O)[C@H]1CCN(S(=O)(=O)[C@H]3CN3C)C1)C(=O)N1CCC[C@H](N1)C(=O)OCC(C)(C)C2 (single isomer, unassigned) [Compound 57]",1 to 10 µM,< 5 µM,
"CCn1c(-c2cccnc2[C@H](C)OC)c2c3cc(ccc31)-c1cc(O)cc(c1)C[C@H](NC(=O)[C@H](C(C)C)N(C)C(=O)CN(C)S(=O)(=O)[C@H]1CN1C)C(=O)N1CCC[C@H](N1)C(=O)OCC(C)(C)C2 (single isomer, unassigned) [Compound 91]",1 to 10 µM,< 5 µM,
"CCn1c(-c2cccnc2[C@H](C)OC)c2c3cc(ccc31)-c1cc(O)cc(c1)C[C@H](NC(=O)[C@H](C(C)C)N(C)C(=O)CN(C)S(=O)(=O)[C@@H]1CN1C)C(=O)N1CCC[C@H](N1)C(=O)OCC(C)(C)C2 (single isomer, unassigned) [Compound 92]",1 to 10 µM,< 5 µM,
"CCn1c(-c2cccnc2[C@H](C)OC)c2c3cc(ccc31)-c1cc(O)cc(c1)C[C@H](NC(=O)[C@H](C(C)C)N(C)C(=O)C1CCN(S(=O)(=O)[C@H]3CN3C)CC1)C(=O)N1CCC[C@H](N1)C(=O)OCC(C)(C)C2 (single isomer, unassigned) [Compound 108]",1 to 10 µM,< 5 µM,
"CCn1c(-c2cccnc2[C@H](C)OC)c2c3cc(ccc31)-c1cc(O)cc(c1)C[C@H](NC(=O)[C@H](C(C)C)N(C)C(=O)C1CN(S(=O)(=O)[C@H]3CN3C)C1)C(=O)N1CCC[C@H](N1)C(=O)OCC(C)(C)C2 (single isomer, unassigned) [Compound 117]",1 to 10 µM,< 5 µM,
"CCn1c(-c2cccnc2[C@H](C)OC)c2c3cc(ccc31)-c1cc(O)cc(c1)C[C@H](NC(=O)[C@H](C(C)C)N(C)C(=O)C1CN(S(=O)(=O)[C@@H]3CN3C)C1)C(=O)N1CCC[C@H](N1)C(=O)OCC(C)(C)C2 (single isomer, unassigned) [Compound 118]",> 10 µM,< 5 µM,
CCn1c(-c2cccnc2[C@H](C)OC)c2c3cc(ccc31)-c1cccc(c1)C[C@H](NC(=O)[C@H](C(C)C)N(C)C(=O)[C@H]1CC[C@H](N=C=NC(C)C)C1)C(=O)N1CCC[C@H](N1)C(=O)OCC(C)(C)C2 [Compound 124],,< 5 µM,
CCn1c(-c2cccnc2[C@H](C)OC)c2c3cc(ccc31)-c1cc(O)cc(c1)C[C@H](NC(=O)[C@H](C(C)C)N(C)C(=O)CN(C)C(=O)[C@H]1N[C@@H]1C1CC1)C(=O)N1CCC[C@H](N1)C(=O)OCC(C)(C)C2 [Compound 135],,,0.1 to 1 µM
CCn1c(-c2cccnc2[C@H](C)OC)c2c3cc(ccc31)-c1cc(O)cc(c1)C[C@H](NC(=O)[C@H](C(C)C)N(C)C(=O)N1CCN(C(=O)[C@H]3CN3)C(=O)C1)C(=O)N1CCC[C@H](N1)C(=O)OCC(C)(C)C2 [Compound 143],> 10 µM,,
CCn1c(-c2cccnc2[C@H](C)OC)c2c3cc(ccc31)-c1cc(O)cc(c1)C[C@H](NC(=O)[C@H](C(C)C)N(C)C(=O)c1ccc([C@H]3CN3)cc1)C(=O)N1CCC[C@H](N1)C(=O)OCC(C)(C)C2 [Compound 145],> 10 µM,,
CCn1c(-c2cccnc2[C@H](C)OC)c2c3cc(ccc31)-c1cc(O)cc(c1)C[C@H](NC(=O)[C@H](C(C)C)N(C)C(=O)C1CC3(C1)CN(C(=O)[C@@H]1CN1)C3)C(=O)N1CCC[C@H](N1)C(=O)OCC(C)(C)C2 [Compound 180],> 10 µM,,
CCn1c(-c2cccnc2[C@H](C)OC)c2c3cc(ccc31)-c1cc(O)cc(c1)C[C@H](NC(=O)[C@H](C(C)C)N(C)C(=O)N1CC(NC(=O)[C@@H]3CN3)C1)C(=O)N1CCC[C@H](N1)C(=O)OCC(C)(C)C2 [Compound 188],> 10 µM,,
CCn1c(-c2cccnc2[C@H](C)OC)c2c3cc(ccc31)-c1cc(O)cc(c1)C[C@H](NC(=O)[C@H](C(C)C)N(C)C(=O)N1CC(NC(=O)[C@H]3CN3)C1)C(=O)N1CCC[C@H](N1)C(=O)OCC(C)(C)C2 [Compound 189],> 10 µM,,
CCn1c(-c2cccnc2[C@H](C)OC)c2c3cc(ccc31)-c1cc(O)cc(c1)C[C@H](NC(=O)[C@H](C(C)C)N(C)C(=O)N1CCN(C(=O)[C@@H]3CN3)C(=O)C1)C(=O)N1CCC[C@H](N1)C(=O)OCC(C)(C)C2 [Compound 194],> 10 µM,,
CCn1c(-c2cccnc2[C@H](C)OC)c2c3cc(ccc31)-c1cc(O)cc(c1)C[C@H](NC(=O)[C@H](C(C)C)N(C)C(=O)N(C)C1CN(C(=O)[C@H]3CN3)C1)C(=O)N1CCC[C@H](N1)C(=O)OCC(C)(C)C2 [Compound 203],> 10 µM,,
CCn1c(-c2cccnc2[C@H](C)OC)c2c3cc(ccc31)-c1cc(O)cc(c1)C[C@H](NC(=O)[C@H](C(C)C)N(C)C(=O)[C@H]1CCN(C(=O)[C@H]3CN3)[C@H]1C)C(=O)N1CCC[C@H](N1)C(=O)OCC(C)(C)C2 [Compound 206],> 10 µM,,
CCn1c(-c2cccnc2[C@H](C)OC)c2c3cc(ccc31)-c1cc(O)cc(c1)C[C@H](NC(=O)[C@@H](COC1CCN(C(=O)[C@H]3CN3)CC1)C(C)C)C(=O)N1CCC[C@H](N1)C(=O)OCC(C)(C)C2 [Compound 211],> 10 µM,,
CCn1c(-c2cccnc2[C@H](C)OC)c2c3cc(ccc31)-c1cc(O)cc(c1)C[C@H](NC(=O)[C@H](C(C)C)N(C)C(=O)c1nc(NC(=O)[C@H]3CN3)cs1)C(=O)N1CCC[C@H](N1)C(=O)OCC(C)(C)C2 [Compound 212],> 10 µM,,
CCn1c(-c2cccnc2[C@H](C)OC)c2c3cc(ccc31)-c1cc(O)cc(c1)C[C@H](NC(=O)[C@H](C(C)C)N1CC[C@H](NC(=O)[C@H]3CN3)C1=O)C(=O)N1CCC[C@H](N1)C(=O)OCC(C)(C)C2 [Compound 213],> 10 µM,,
CCn1c(-c2cccnc2[C@H](C)OC)c2c3cc(ccc31)-c1csc(n1)C[C@H](NC(=O)[C@H](C(C)C)N(C)C(=O)N1CC[C@H]1CN(C)C(=O)[C@@H]1CN1)C(=O)N1CCC[C@H](N1)C(=O)OCC(C)(C)C2 [Compound 235],> 10 µM,,
CCn1c(-c2cccnc2[C@H](C)OC)c2c3cc(ccc31)-c1cc(O)cc(c1)C[C@H](NC(=O)[C@H](C(C)C)N(C)C(=O)N1C[C@@H]3[C@H]1CCN3C(=O)[C@H]1CN1)C(=O)N1CCC[C@H](N1)C(=O)OCC(C)(C)C2 [Compound 250],> 10 µM,,
CCn1c(-c2cccnc2[C@H](C)OC)c2c3cc(ccc31)-c1cc(O)cc(c1)C[C@H](NC(=O)[C@H](C(C)C)N(C)C(=O)N1C[C@@H]3[C@H]1CCN3C(=O)[C@@H]1CN1)C(=O)N1CCC[C@H](N1)C(=O)OCC(C)(C)C2 [Compound 251],> 10 µM,,
CCn1c(-c2cccnc2[C@H](C)OC)c2c3cc(ccc31)-c1cc(O)cc(c1)C[C@H](NC(=O)[C@H](C(C)C)N(C)C(=O)N1CC[C@@H](N(C)C(=O)[C@H]3CN3)C1)C(=O)N1CCC[C@H](N1)C(=O)OCC(C)(C)C2 [Compound 252],> 10 µM,,
CCn1c(-c2cccnc2[C@H](C)OC)c2c3cc(ccc31)-c1cc(O)cc(c1)C[C@H](NC(=O)[C@H](C(C)C)N(C)C(=O)N1CC[C@@H](N(C)C(=O)[C@@H]3CN3)C1)C(=O)N1CCC[C@H](N1)C(=O)OCC(C)(C)C2 [Compound 253],> 10 µM,,
CCn1c(-c2cccnc2[C@H](C)OC)c2c3cc(ccc31)-c1cc(O)cc(c1)C[C@H](NC(=O)[C@@H](COC1CN(C(=O)[C@H]3CN3)C1)C(C)C)C(=O)N1CCC[C@H](N1)C(=O)OCC(C)(C)C2 [Compound 312],> 10 µM,,
